Measurements: ChEMBL document CHEMBL4138123, “Design, synthesis and biological evaluation of novel pyrazolochalcones as potential modulators of PI3K/Akt/mTOR pathway and inducers of apoptosis in breast cancer cells” (Eur J Med Chem, 2017)

Columns and labels:
Format in all cases: functional
[1] = test system: HCT-116; test: Cytotoxicity against human HCT116 cells assessed as growth inhibition after 48 hrs by sulforhodamine B assay; details: HCT-116, 48 h
[2] = test system: HCT-15; test: Cytotoxicity against human HCT15 cells assessed as growth inhibition after 48 hrs by sulforhodamine B assay; details: HCT-15, 48 h
[3] = test system: SK-MEL-28; test: Cytotoxicity against human SK-MEL-28 cells assessed as growth inhibition after 48 hrs by sulforhodamine B assay; details: SK-MEL-28, 48 h
[4] = test system: UACC-62; test: Cytotoxicity against human UACC62 cells assessed as cell growth at 0.01 uM after 48 hrs by sulforhodamine B assay relative to control; details: UACC-62, 48 h, read-out: Activity
[5] = test system: NCI-H322M; test: Cytotoxicity against human NCI-H322M cells assessed as cell growth at 0.01 uM after 48 hrs by sulforhodamine B assay relative to control; details: read-out: Activity
[6] = test system: K562; test: Cytotoxicity against human K562 cells assessed as cell growth at 0.01 uM after 48 hrs by sulforhodamine B assay relative to control; details: K562, 48 h, read-out: Activity
[7] = test system: PC-3; test: Cytotoxicity against human PC3 cells assessed as cell growth at 0.01 uM after 48 hrs by sulforhodamine B assay relative to control; details: PC-3, 48 h, read-out: Activity
[8] = test system: NCI-H23; test: Cytotoxicity against human NCI-H23 cells assessed as cell growth at 0.1 uM after 48 hrs by sulforhodamine B assay relative to control; details: NCI-H23, 48 h, read-out: Activity
[9] = test system: NCI-H322M; test: Cytotoxicity against human NCI-H322M cells assessed as cell growth at 0.1 uM after 48 hrs by sulforhodamine B assay relative to control; details: read-out: Activity
[10] = test system: HCC 2998; test: Cytotoxicity against human HCC2998 cells assessed as cell growth at 0.1 uM after 48 hrs by sulforhodamine B assay relative to control; details: HCC 2998, 48 h, read-out: Activity
[11] = test system: SF-539; test: Cytotoxicity against human SF539 cells assessed as cell growth at 0.1 uM after 48 hrs by sulforhodamine B assay relative to control; details: SF-539, 48 h, read-out: Activity
[12] = test system: OVCAR-4; test: Cytotoxicity against human OVCAR4 cells assessed as cell growth at 0.1 uM after 48 hrs by sulforhodamine B assay relative to control; details: OVCAR-4, 48 h, read-out: Activity
[13] = test system: SN12C; test: Cytotoxicity against human SN12C cells assessed as cell growth at 0.1 uM after 48 hrs by sulforhodamine B assay relative to control; details: read-out: Activity
[14] = test system: DU-145; test: Cytotoxicity against human DU145 cells assessed as cell growth at 0.1 uM after 48 hrs by sulforhodamine B assay relative to control; details: DU-145, 48 h, read-out: Activity
[15] = test system: HCT-116; test: Cytotoxicity against human HCT116 cells assessed as cell growth at 1 uM after 48 hrs by sulforhodamine B assay relative to control; details: HCT-116, 48 h, read-out: Activity
[16] = test system: OVCAR-8; test: Cytotoxicity against human OVCAR8 cells assessed as cell growth at 1 uM after 48 hrs by sulforhodamine B assay relative to control; details: OVCAR-8, 48 h, read-out: Activity
[17] = test system: NCI/ADR-RES; test: Cytotoxicity against human NCI/ADR-RES cells assessed as cell growth at 1 uM after 48 hrs by sulforhodamine B assay relative to control; details: read-out: Activity
[18] = test system: SK-OV-3; test: Cytotoxicity against human SKOV3 cells assessed as cell growth at 1 uM after 48 hrs by sulforhodamine B assay relative to control; details: SK-OV-3, 48 h, read-out: Activity
[19] = test system: TK-10; test: Cytotoxicity against human TK10 cells assessed as cell growth at 1 uM after 48 hrs by sulforhodamine B assay relative to control; details: TK-10, 48 h, read-out: Activity
[20] = test system: PC-3; test: Cytotoxicity against human PC3 cells assessed as cell growth at 1 uM after 48 hrs by sulforhodamine B assay relative to control; details: PC-3, 48 h, read-out: Activity
[21] = test system: CCRF-CEM; test: Cytotoxicity against human CCRF-CEM cells assessed as cell growth at 10 uM after 48 hrs by sulforhodamine B assay relative to control; details: read-out: Activity
[22] = test system: MOLT-4; test: Cytotoxicity against human MOLT4 cells assessed as cell growth at 10 uM after 48 hrs by sulforhodamine B assay relative to control; details: MOLT-4, 48 h, read-out: Activity
[23] = test system: NCI-H226; test: Cytotoxicity against human NCI-H226 cells assessed as cell growth at 10 uM after 48 hrs by sulforhodamine B assay relative to control; details: NCI-H226, 48 h, read-out: Activity
[24] = test system: MDA-MB-435; test: Cytotoxicity against human MDA-MB-435 cells assessed as cell growth at 10 uM after 48 hrs by sulforhodamine B assay relative to control; details: MDA-MB-435, 48 h, read-out: Activity
[25] = test system: SK-MEL-5; test: Cytotoxicity against human SK-MEL-5 cells assessed as cell growth at 10 uM after 48 hrs by sulforhodamine B assay relative to control; details: SK-MEL-5, 48 h, read-out: Activity
[26] = test system: UACC-62; test: Cytotoxicity against human UACC62 cells assessed as cell growth at 10 uM after 48 hrs by sulforhodamine B assay relative to control; details: UACC-62, 48 h, read-out: Activity
[27] = test system: RXF 393; test: Cytotoxicity against human RXF393 cells assessed as cell growth at 10 uM after 48 hrs by sulforhodamine B assay relative to control; details: RXF 393, 48 h, read-out: Activity
[28] = test system: MDA-MB-231; test: Cytotoxicity against human MDA-MB-231 cells assessed as cell growth at 10 uM after 48 hrs by sulforhodamine B assay relative to control; details: MDA-MB-231, 48 h, read-out: Activity
[29] = test system: HL-60(TB); test: Cytotoxicity against human HL-60(TB) cells assessed as cell growth at 100 uM after 48 hrs by sulforhodamine B assay relative to control; details: HL-60, 48 h, read-out: Activity
[30] = test system: RPMI-8226; test: Cytotoxicity against human RPMI8226 cells assessed as cell growth at 100 uM after 48 hrs by sulforhodamine B assay relative to control; details: RPMI-8226, 48 h, read-out: Activity
[31] = test system: OVCAR-4; test: Cytotoxicity against human OVCAR4 cells assessed as cell growth at 100 uM after 48 hrs by sulforhodamine B assay relative to control; details: OVCAR-4, 48 h, read-out: Activity
[32] = test system: OVCAR-8; test: Cytotoxicity against human OVCAR8 cells assessed as cell growth at 100 uM after 48 hrs by sulforhodamine B assay relative to control; details: OVCAR-8, 48 h, read-out: Activity
[33] = test system: 786-0; test: Cytotoxicity against human 786-0 cells assessed as cell growth at 100 uM after 48 hrs by sulforhodamine B assay relative to control; details: 786-0, 48 h, read-out: Activity
[34] = test system: DU-145; test: Cytotoxicity against human DU145 cells assessed as cell growth at 100 uM after 48 hrs by sulforhodamine B assay relative to control; details: DU-145, 48 h, read-out: Activity
[35] = test system: MDA-MB-468; test: Cytotoxicity against human MDA-MB-468 cells assessed as cell growth at 100 uM after 48 hrs by sulforhodamine B assay relative to control; details: MDA-MB-468, 48 h, read-out: Activity

## COc1ccc(C(=O)/C=C/c2cc(-c3cc(OC)c(OC)c(OC)c3)n[nH]2)cc1
[1]
  LC50: > 100 µM
  TGI: 5.86 µM
[2]
  LC50: > 100 µM
  TGI: 4.37 µM
[3]
  LC50: 9.23 µM
  TGI: 4.42 µM
[4]
  growth at 0.01 µM: 100%
[5]
  growth at 0.01 µM: 92%
[6]
  growth at 0.01 µM: 97%
[7]
  growth at 0.01 µM: 99%
[8]
  growth at 0.1 µM: 92%
[9]
  growth at 0.1 µM: 96%
[10]
  growth at 0.1 µM: 97%
[11]
  growth at 0.1 µM: 99%
[12]
  growth at 0.1 µM: 94%
[13]
  growth at 0.1 µM: 96%
[14]
  growth at 0.1 µM: 101%
[15]
  growth at 1 µM: 72%
[16]
  growth at 1 µM: 86%
[17]
  growth at 1 µM: 90%
[18]
  growth at 1 µM: 98%
[19]
  growth at 1 µM: 92%
[20]
  growth at 1 µM: 76%
[21]
  growth at 10 µM: -19%
[22]
  growth at 10 µM: -20%
[23]
  growth at 10 µM: -59%
[24]
  growth at 10 µM: -30%
[25]
  growth at 10 µM: -89%
[26]
  growth at 10 µM: -74%
[27]
  growth at 10 µM: -97%
[28]
  growth at 10 µM: -33%
[29]
  growth at 100 µM: -31%
[30]
  growth at 100 µM: -34%
[31]
  growth at 100 µM: -15%
[32]
  growth at 100 µM: -16%
[33]
  growth at 100 µM: -48%
[34]
  growth at 100 µM: -2%
[35]
  growth at 100 µM: -78%

## COc1ccc(-c2cc(/C=C/C(=O)c3ccc(OC)c(OC)c3)[nH]n2)cc1
[1]
  GI50: 1.01 µM
  LC50: 6.08 µM
  TGI: 2.48 µM
[2]
  GI50: 1.35 µM
  LC50: 9.41 µM
  TGI: 3.56 µM
[3]
  GI50: 1.65 µM
  LC50: 5.74 µM
  TGI: 3.07 µM
[4]
  growth at 0.01 µM: 99%
[5]
  growth at 0.01 µM: 94%
[6]
  growth at 0.01 µM: 109%
[7]
  growth at 0.01 µM: 95%
[8]
  growth at 0.1 µM: 101%
[9]
  growth at 0.1 µM: 94%
[10]
  growth at 0.1 µM: 105%
[11]
  growth at 0.1 µM: 94%
[12]
  growth at 0.1 µM: 77%
[13]
  growth at 0.1 µM: 93%
[14]
  growth at 0.1 µM: 109%
[15]
  growth at 1 µM: 51%
[16]
  growth at 1 µM: 75%
[17]
  growth at 1 µM: 91%
[18]
  growth at 1 µM: 112%
[19]
  growth at 1 µM: 103%
[20]
  growth at 1 µM: 71%
[21]
  growth at 10 µM: -39%
[22]
  growth at 10 µM: -10%
[23]
  growth at 10 µM: -64%
[24]
  growth at 10 µM: -64%
[25]
  growth at 10 µM: -66%
[26]
  growth at 10 µM: -77%
[27]
  growth at 10 µM: -82%
[28]
  growth at 10 µM: -17%
[29]
  growth at 100 µM: -43%
[30]
  growth at 100 µM: -62%
[31]
  growth at 100 µM: -77%
[32]
  growth at 100 µM: -66%
[33]
  growth at 100 µM: -96%
[34]
  growth at 100 µM: -80%
[35]
  growth at 100 µM: -76%
